In patent publication US20110207726A1, “Inhibitors of Human Cathepsin L, Cathepsin B, and Cathepsin S” (The Trustees of the University of Pennsylvania, priority 2008, published 2011):
Like-named read-outs stand apart in the source and are kept apart here.

Columns and labels:
[1] = Stability in DMSO and cathepsin L assay buffer; format: physicochemical
Excerpt: Some variability in IC50 values determined for Compound (iii) prompted us to explore the stability of both Compound No. 1 and Compound (iii) in solvents relevant to the bioassay.

human liver cathepsin L = biological target: T1, human liver cathepsin L (Homo sapiens, UniProt P07711); assay: Cathepsin L assay, IC50 determination; format: biochemical
T1 construct: 8.7 ng/mL human liver cathepsin L (Calbiochem 219402); purchased Calbiochem 219402; host or cells: human liver
T1 sequence (P07711 114-288 limits assumed): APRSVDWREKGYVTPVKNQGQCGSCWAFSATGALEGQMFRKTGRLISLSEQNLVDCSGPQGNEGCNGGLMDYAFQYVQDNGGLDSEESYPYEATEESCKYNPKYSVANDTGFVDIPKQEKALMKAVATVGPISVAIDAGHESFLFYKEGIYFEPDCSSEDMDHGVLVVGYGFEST
T1 sequence (P07711 292-333 limits assumed): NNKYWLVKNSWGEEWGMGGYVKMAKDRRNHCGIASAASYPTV
In short: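 Enzyme (300 pM) pre-activated for 30 min in 20 mM sodium acetate, 1 mM EDTA, 5 mM cysteine, pH 5.5, then incubated 1 h at room temperature with 1 microM Z-Phe-Arg-AMC and compound. Fluorescent read-out on a microplate reader; IC50 in triplicate.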

Human spleen cathepsin S = biological target: T2, Human spleen cathepsin S (Homo sapiens, UniProt P25774); assay: Cathepsin S assay, IC50 determination; format: biochemical
T2 construct: Human spleen cathepsin S (Calbiochem 219344, 40 ng/mL); purchased Calbiochem 219344; host or cells: human spleen
T2 sequence (P25774 115-331): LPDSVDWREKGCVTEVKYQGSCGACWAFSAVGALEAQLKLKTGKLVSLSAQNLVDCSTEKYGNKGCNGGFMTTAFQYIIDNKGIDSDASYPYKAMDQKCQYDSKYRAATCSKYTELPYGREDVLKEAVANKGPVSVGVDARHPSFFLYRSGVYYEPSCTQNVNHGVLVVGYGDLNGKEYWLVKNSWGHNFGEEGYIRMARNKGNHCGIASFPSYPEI
In short: (§1)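 Spleen cathepsin S (40 ng/mL) with 15 microM Z-Phe-Arg-AMC and liver cathepsin B (65 ng/mL) with 15 microM Z-Arg-Arg-AMC, in 20 mM sodium acetate, 1 mM EDTA, 5 mM cysteine, pH 5.5. AMC fluorescence release monitored; IC50 measured in triplicate.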

human cathepsin L = human cathepsin L (Homo sapiens, UniProt P07711); assay: Preincubation studies, cathepsin L; format: biochemical; set-up: 8.7 ng/mL human liver cathepsin L (Calbiochem 219402); purchased Calbiochem 219402; host or cells: human liver
Sequence of human cathepsin L (P07711 114-288 limits assumed): as the sequence (P07711 114-288 limits assumed) above
Sequence of human cathepsin L (P07711 292-333 limits assumed): as the sequence (P07711 292-333 limits assumed) above
Experimental: To establish the time-dependent mechanism of inhibition, enzyme and inhibitor were preincubated for various time points in a 96-well microplate prior to the addition of substrate to initiate the enzymatic reaction. 47.5 μL of cathepsin L (18.3 ng/mL) and 47.5 μL of Compound No. 1 at various concentrations in assay buffer were incubated up to 4 hours. Five μL of Z-Phe-Arg-AMC substrate were then added and the plate was monitored for AMC hydrolysis on the Envision fluorescent microplate reader.

Human liver cathepsin B = biological target: T3, Human liver cathepsin B (Homo sapiens, UniProt P07858); assay: Cathepsin B assay, IC50 determination; format: biochemical
T3 construct: Human liver cathepsin B (Calbiochem 219362, 65 ng/mL); purchased Calbiochem 219362; host or cells: human liver
In short: as §1

zebrafish = assay: Zebrafish live organism toxicity assay; details: at 100 μM
[2] = system: Leishmania major promastigotes; assay: Leishmaniasis assay; format: cell-based; details: read-out: IC50 against Leishmania major promastigotes
Experimental: Five thousand Leishmania major promastigotes were plated per well in a 384-well microtiter plate in a 20 μL volume of promastigote growth medium. Promastigotes were treated with a concentration range from 0 μM to 50 μM of Compound No. 1 for 44 hrs. Five pL Cell-Titer-Blue™ were added per well and incubated for 4 hrs. Relative fluorescence units (A560/A590) were captured on a SpectraMax M5 microtiter plate reader. DMSO concentrations were held constant at 0.5%.

Q: With CCc1ccccc1NC(=O)CSC(=O)NNC(=O)[C@H](Cc1c[nH]c2ccccc12)NC(=O)OC(C)(C)C [Compound No. 1] as the compound, how does the “stability in DMSO” value ([1]; DMSO, room temperature) read?
A: Its value is “completely stable”.

Q: What about the “stability in cathepsin L assay buffer” value ([1]; NaOAc (20 mM), pH 5.5, EDTA (1 mM), cysteine (5 mM)) of the same compound?
A: The value was “completely stable”.

Q: And the “Selectivity Index @ 10 min” value (human liver cathepsin L; Cathepsin L, human liver, 10 min)?
A: Its value is 1.

Q: And the IC50 (human liver cathepsin L; Cathepsin L, human liver, no preincubation, 30 min, read-out: IC50 @ 30 min)?
A: The IC50 was 75 ± 5 nM.

Q: And the IC50 (human liver cathepsin L; Cathepsin L, human liver, no preincubation, 60 min, read-out: IC50 @ 60 min)?
A: Its IC50 is 56 ± 4 nM.

Q: What about the IC50 (human liver cathepsin L; Cathepsin L, human liver, no preincubation, 90 min, read-out: IC50 @ 90 min) of the same compound?
A: The IC50 was 50 ± 3 nM.

Q: What about the “Selectivity Index @ 30 min” value (human liver cathepsin L; Cathepsin L, 30 min) of the same compound?
A: The value was 1.

Q: What about the “Selectivity Index @ 60 min” value (human liver cathepsin L; Cathepsin L, 60 min) of the same compound?
A: Its value is 1.

Q: What about the “Selectivity Index @ 90 min” value (human liver cathepsin L; Cathepsin L, 90 min) of the same compound?
A: Its value is 1.

Q: And the “Selectivity Index” value (human liver cathepsin L; Cathepsin L, IC50 protease / IC50 cathepsin L, over 10-90 min)?
A: The value was 1.

Q: What about the IC50 (human liver cathepsin L; IC50 @ 10 min, Cathepsin L, human liver, no preincubation, 10 min) of the same compound?
A: The IC50 was 155 ± 12 nM.

Q: What about the IC50 (human liver cathepsin L; Table 1, read-out: IC50 Cat L) of the same compound?
A: The IC50 was 56 nM.

Q: What about the IC50 (human liver cathepsin L; Table 17, n = 3, C, S or O at the sulfur position, read-out: Cathepsin L inhibitory activity IC50) of the same compound?
A: Its IC50 is 56 ± 4 nM.

Q: And the IC50 (human liver cathepsin L; no preincubation of enzyme and inhibitor, read-out: IC50 against cathepsin L (no preincubation))?
A: Its IC50 is 56 nM.

Q: What about the “Selectivity Index @ 10 min” value (Human spleen cathepsin S; Cathepsin S vs cathepsin L, 10 min) of the same compound?
A: The value was 7.

Q: What about the “Selectivity Index @ 30 min” value (Human spleen cathepsin S; Cathepsin S vs cathepsin L, 30 min) of the same compound?
A: Its value is 10.

Q: And the “Selectivity Index @ 60 min” value (Human spleen cathepsin S; Cathepsin S vs cathepsin L, 60 min)?
A: The value was 13.

Q: And the “Selectivity Index @ 90 min” value (Human spleen cathepsin S; Cathepsin S vs cathepsin L, 90 min)?
A: Its value is 14.

Q: What about the “Selectivity Index” value (Human spleen cathepsin S; Cathepsin S vs cathepsin L, over 10-90 min) of the same compound?
A: The value was 7-14.

Q: What about the IC50 (Human spleen cathepsin S; Cathepsin S, no preincubation, 30 min, read-out: IC50 @ 30 min) of the same compound?
A: Its IC50 is 745 ± 10 nM.

Q: And the IC50 (Human spleen cathepsin S; Cathepsin S, no preincubation, 60 min, read-out: IC50 @ 60 min)?
A: The IC50 was 724 ± 11 nM.

Q: What about the IC50 (Human spleen cathepsin S; Cathepsin S, no preincubation, 90 min, read-out: IC50 @ 90 min) of the same compound?
A: The IC50 was 721 ± 29 nM.

Q: What about the IC50 (Human spleen cathepsin S; IC50 @ 10 min, Cathepsin S, human spleen, no preincubation, 10 min) of the same compound?
A: The IC50 was 1110 ± 134 nM.

Q: What about the IC50 (Human spleen cathepsin S; Table 1, read-out: IC50 Cat S) of the same compound?
A: The IC50 was 960 nM.

Q: And the IC50 (human cathepsin L; IC50 against human cathepsin L after 1 hour preincubation, preincubation with enzyme 1 h prior to substrate addition)?
A: Its IC50 is 7.5 ± 1 nM.

Q: What about the IC50 (human cathepsin L; IC50 against human cathepsin L after 2 hours preincubation, preincubation with enzyme 2 h) of the same compound?
A: Its IC50 is 4.2 ± 0.6 nM.

Q: What about the IC50 (human cathepsin L; preincubation with enzyme 4 h, read-out: IC50 against human cathepsin L after 4 hours preincubation) of the same compound?
A: The IC50 was 1 ± 0.5 nM.

Q: And the “Selectivity Index @ 10 min” value (Human liver cathepsin B; Cathepsin B vs cathepsin L, 10 min)?
A: The value was 48.

Q: And the “Selectivity Index @ 30 min” value (Human liver cathepsin B; Cathepsin B vs cathepsin L, 30 min)?
A: Its value is 40.

Q: And the “Selectivity Index @ 60 min” value (Human liver cathepsin B; Cathepsin B vs cathepsin L, 60 min)?
A: Its value is 45.

Q: What about the “Selectivity Index @ 90 min” value (Human liver cathepsin B; Cathepsin B vs cathepsin L, 90 min) of the same compound?
A: The value was 50.

Q: What about the “Selectivity Index” value (Human liver cathepsin B; Cathepsin B vs cathepsin L, over 10-90 min) of the same compound?
A: Its value is 40-50.

Q: And the IC50 (Human liver cathepsin B; Cathepsin B, no preincubation, 30 min, read-out: IC50 @ 30 min)?
A: Its IC50 is 2980 ± 295 nM.

Q: And the IC50 (Human liver cathepsin B; Cathepsin B, no preincubation, 60 min, read-out: IC50 @ 60 min)?
A: Its IC50 is 2530 ± 73 nM.

Q: What about the IC50 (Human liver cathepsin B; Cathepsin B, no preincubation, 90 min, read-out: IC50 @ 90 min) of the same compound?
A: The IC50 was 2510 ± 139 nM.

Q: And the IC50 (Human liver cathepsin B; IC50 @ 10 min, Cathepsin B, human liver, no preincubation, 10 min)?
A: The IC50 was 7490 ± 693 nM.

Q: What about the IC50 (Human liver cathepsin B; Table 1, read-out: IC50 Cat B) of the same compound?
A: The IC50 was 4450 nM.

Q: And the toxicity to zebrafish (zebrafish)?
A: Its toxicity to zebrafish is “lack of toxicity”.

Q: And the IC50 [2]?
A: The IC50 was 12500 ± 600 nM.
